{
  "source": "patent US20240252697A1",
  "about": "“INACTIVATION OF PATHOGENS IN EX VIVO BLOOD PRODUCTS IN STORAGE BAGS USING VISIBLE LIGHT” (priority 2015, published 2024)",
  "system": "feline calicivirus (FCV)",
  "test": "405 nm light inactivation of FCV suspended in supplemented minimal medium, counted by plaque assay on FEA cells",
  "type": "cell-based, feline calicivirus vaccine strain F9",
  "note": "Marks after values point to notes of the source that are not given here.",
  "data": [
    {"smiles": "Cc1cc2nc3c(=O)[nH]c(=O)nc-3n(C[C@H](O)[C@H](O)[C@H](O)CO)c2cc1C", "note": "[Riboflavin]", "values": [
      {"measurement": "Log10 reduction/inactivation of FCV", "setting": "FCV in MM plus components at DMEM concentrations, after", "result": 1.3, "unit": "Log10"},
      {"measurement": "Exposed Viral Population (±St Dev)", "setting": "FCV in minimal media plus photosensitive components at DMEM concentrations, 155 mW cm^−2, mean count n = 3 ± SD", "result": "3.77 ± 0.61"},
      {"measurement": "Log10 Reduction", "setting": "FCV in minimal media plus photosensitive components, 155 mW cm^−2, exposed vs non-exposed control, asterisk = P ≤ 0.05", "result": "1.28* Log10"}
    ]}
  ]
}
